Data as given in ChEMBL document CHEMBL1158219, “Cell-based screen for identification of inhibitors of tubulin polymerization” (J Nat Prod, 1996).
Active and inactive are the calls of the source. The calls are words filed in the database; no cut-off is given here. *1 amine or outer side, *2 acyl side, *3 side chain or, on linkers, in order; H or OH if unused. Where a SMILES comes first, the peptide text is derived from it. Bridges are numbered along the chain shown (N, C = ends). Roman numbers before positions name the chains, in order. [ ]: non-standard residue; d: D form. Actinocin(9to1) = Cc1c2oc3c(C)ccc(C(=O)[*:1])c3nc-2c(C(=O)[*:2])c(N)c1=O; NMeV = CN[C@H](C(=O)O)C(C)C; Sar = CNCC(=O)O

How the values were obtained:
C6 [1] = test: Cytotoxicity against rat C6 cells after 3 days treated 4 hrs before db-cAMP challenge by MTT assay; assay type: functional; settings: read-out: LC50 (the source's name)
[2] = Inhibition of tubulin polymerization in rat C6 cells after 4 hrs; assay type: cell-based
C6 [3] = test: Cytotoxicity against rat C6 cells assessed as cell release at 50 ug/mL to 2.5 mg/mL after 5 hrs by MTT assay in absence of db-cAMP; assay type: functional, cell-based
C6 [4] = test: Cytotoxicity against rat C6 cells at 50 ug/mL to 2.5 mg/mL after 3 days treated 4 hrs before db-cAMP challenge by MTT assay; assay type: functional, cell-based
C6 [5] = test: Inhibition of tubulin polymerization in rat C6 cells at 50 ug/mL to 2.5 mg/mL after 4 hrs; assay type: cell-based

Structure (SMILES) | CC50 (C6 [1]) [nM] | EC50 [2] [nM] | Activity (C6 [3]) | Activity (C6 [4]) | Activity (C6 [5])
CC[C@]1(O)C[C@H]2CN(CCc3c([nH]c4ccccc34)[C@@](C(=O)OC)(c3cc4c(cc3OC)N(C=O)[C@H]3[C@@](O)(C(=O)OC)[C@H](OC(C)=O)[C@]5(CC)C=CCN6CC[C@]43[C@@H]65)C2)C1 [VINCRISTINE] | 320 | 6200 | inactive |  | 
COc1cc([C@@H]2c3cc4c(cc3[C@@H](O[C@@H]3O[C@@H]5CO[C@@H](c6cccs6)O[C@H]5[C@H](O)[C@H]3O)[C@H]3COC(=O)[C@H]23)OCO4)cc(OC)c1O |  |  | inactive | inactive | inactive
CO[C@@H]1[C@@H](OC(N)=O)[C@@H](O)[C@H](Oc2ccc3c(O)c(NC(=O)c4ccc(O)c(CC=C(C)C)c4)c(=O)oc3c2C)OC1(C)C |  |  | inactive | inactive | inactive
C=CC[C@@H](CC/C(C)=C/C=C/CC/C=C\[C@@H]1CSC([C@@H]2C[C@@H]2C)=N1)OC [CURACIN A] | 11 | 510 | inactive |  | 
COc1cc2c(c(OC)c1OC)-c1ccc(OC)c(=O)cc1[C@@H](NC(C)=O)CC2 [COLCHICINE] | 200 | 100 | inactive |  | 
CN(N=O)C(=O)N[C@@H](C=O)[C@@H](O)[C@H](O)[C@H](O)CO |  |  | inactive | inactive | inactive
CC[C@]1(O)C[C@@H]2CN(CCc3c([nH]c4ccccc34)[C@@](C(=O)OC)(c3cc4c(cc3OC)N(C)[C@H]3[C@@](O)(C(=O)OC)[C@H](OC(C)=O)[C@]5(CC)C=CCN6CC[C@]43[C@@H]65)C2)C1 [VINBLASTINE] | 66 | 8200 | inactive |  | 
COc1cccc2c1C(=O)c1c(O)c3c(c(O)c1C2=O)C[C@@](O)(C(=O)CO)C[C@@H]3O[C@H]1C[C@H](N)[C@H](O)[C@H](C)O1 |  |  | inactive | inactive | inactive
COc1cccc2c1C(=O)c1c(O)c3c(c(O)c1C2=O)C[C@@](O)(C(C)=O)C[C@@H]3O[C@H]1C[C@H](N)[C@H](O)[C@H](C)O1 |  |  | inactive | inactive | inactive
Cc1c2oc3c(C)ccc(C(=O)N[C@@H]4C(=O)N[C@H](C(C)C)C(=O)N5CCC[C@H]5C(=O)N(C)CC(=O)N(C)[C@@H](C(C)C)C(=O)O[C@@H]4C)c3nc-2c(C(=O)N[C@@H]2C(=O)N[C@H](C(C)C)C(=O)N3CCC[C@H]3C(=O)N(C)CC(=O)N(C)[C@@H](C(C)C)C(=O)O[C@@H]2C)c(N)c1=O (I: T[dV]P[Sar][NMeV] / II: T[dV]P[Sar][NMeV]; ester I:1-I:C, II:1-II:C; linker I:N-II:N via Actinocin(9to1)) |  |  | inactive | inactive | inactive
COc1cc([C@@H]2c3cc4c(cc3[C@@H](O[C@@H]3O[C@@H]5CO[C@@H](C)O[C@H]5[C@H](O)[C@H]3O)[C@H]3COC(=O)[C@H]23)OCO4)cc(OC)c1O [ETOPOSIDE] | 120 | 680000 | inactive |  | 
CO[C@@]12[C@H](COC(N)=O)C3=C(C(=O)C(C)=C(N)C3=O)N1C[C@@H]1N[C@@H]12 |  |  | inactive | inactive | inactive
O=NN(CCCl)C(=O)NCCCl |  |  | inactive | inactive | inactive
C[C@@H]1C[C@@H]([C@H](O)CC2CC(=O)NC(=O)C2)C(=O)[C@@H](C)C1 |  |  | inactive | inactive | inactive
Clc1ccc(C(c2ccccc2Cl)C(Cl)Cl)cc1 (stereo not drawn) |  |  | inactive | inactive | inactive
CCn1cc(C(=O)O)c(=O)c2ccc(C)nc21 |  |  | inactive | inactive | inactive
CC(=O)O[C@H]1C(=O)[C@@]2(C)[C@H]([C@H](OC(=O)c3ccccc3)[C@]3(O)C[C@H](OC(=O)[C@H](O)[C@@H](NC(=O)c4ccccc4)c4ccccc4)C(C)=C1C3(C)C)[C@]1(OC(C)=O)CO[C@@H]1C[C@@H]2O [PACLITAXEL] | 23 |  |  |  | 
C=C1[C@@H](C)[C@H]2[C@H](Cc3ccccc3)NC(=O)[C@]23OC(=O)/C=C/[C@H](O)CCC[C@@H](C)C/C=C/[C@H]3[C@@H]1O |  |  | inactive | inactive | inactive
O=C1c2c(O)ccc(O)c2C(=O)c2c(NCCNCCO)ccc(NCCNCCO)c21 |  |  | inactive | inactive | inactive
N[C@@H](Cc1ccc(N(CCCl)CCCl)cc1)C(=O)O |  |  | inactive | inactive | inactive
